Data set [1] has as its system Rattus norvegicus. As to the kind of experiment: Protective effect against chronic hypoxia-induced pulmonary hypertension in Sprague-Dawley rat assessed as decrease in mean pulmonary arterial pressure at 10 mg/kg, ip administered every other day at 10 mins prior to induction of hypoxia and measured after 2 weeks. The class given is functional, organism-based.
The test system of data set [2] is Rattus norvegicus. Nature of the data set: Protective effect against chronic hypoxia-induced pulmonary hypertension in Sprague-Dawley rat assessed as decrease in mean pulmonary arterial pressure at 50 mg/kg, ip administered every other day at 10 mins prior to induction of hypoxia and measured after 2 weeks. It counts as functional, organism-based.
A short description of data set [3]: Cmax in chronic hypoxia-induced pulmonary hypertension model of Sprague-Dawley rat at 50 mg/kg, ip after 30 to 600 mins by HPLC analysis. Also noted: dose 50 mg/kg, route intraperitoneal. The settings on record: in vivo. It counts as ADME, organism-based.
Data set [4] deals with Rattus norvegicus. Nature of the data set: Protective effect against chronic hypoxia-induced pulmonary hypertension in Sprague-Dawley rat assessed as decrease in serum angiotensin-2 levels at 10 mg/kg, ip administered every other day at 10 mins prior to induction of hypoxia and measured after 2 weeks by ELISA. The class given is functional, organism-based. A general note: ELISA stands for enzyme-linked immunosorbent assay.

Data set [5] relates to Rattus norvegicus. As to the kind of experiment: Protective effect against chronic hypoxia-induced pulmonary hypertension in Sprague-Dawley rat assessed as decrease in serum angiotensin-2 levels at 50 mg/kg, ip administered every other day at 10 mins prior to induction of hypoxia and measured after 2 weeks by ELISA. The class given is functional, organism-based.
Data set [6] concerns Rattus norvegicus. Nature of the data set: Protective effect against chronic hypoxia-induced pulmonary hypertension in Sprague-Dawley rat assessed as decrease in serum endothelin levels at 50 mg/kg, ip administered every other day at 10 mins prior to induction of hypoxia and measured after 2 weeks by ELISA. The class given is functional, organism-based.
Data set [7] is described as follows: Tmax in chronic hypoxia-induced pulmonary hypertension model of Sprague-Dawley rat at 10 mg/kg, ip after 30 to 600 mins by HPLC analysis. It counts as ADME, organism-based. The conditions noted are these: in vivo.
Data set [8] in a line: Cmax in chronic hypoxia-induced pulmonary hypertension model of Sprague-Dawley rat at 10 mg/kg, ip after 30 to 600 mins by HPLC analysis. It counts as ADME, organism-based. The conditions noted are these: in vivo. Also noted: dose 10 mg/kg, route intraperitoneal.
Data set [9] has as its system Pulmonary artery. As to the kind of experiment: Protective effect against chronic hypoxia-induced pulmonary hypertension in Sprague-Dawley rat pulmonary arterial ring assessed as increase in relaxation of pulmonary artery ring at 50 uM treated after phenylephrine-induced vasoconstriction measured at 10 mins relative to control. The class given is functional. Also noted: scale not given: the % may be the effect or the level left.

Data set [10] is filed under the species Rattus norvegicus. Nature of the data set: Inhibition of hypoxia-induced proliferation of Sprague-Dawley rat PASMC at 10 uM preincubated for 10 mins followed by hypoxia induction and measured after 24 hrs by CCK8 assay. It counts as functional. A general note: Tetrazolium assays rely on reduction of a dye to a coloured formazan, in cell work by metabolically active cells.

Data set [11] concerns Pulmonary artery. As to the kind of experiment: Protective effect against chronic hypoxia-induced pulmonary hypertension in Sprague-Dawley rat pulmonary arterial ring assessed as increase in relaxation of pulmonary artery ring at 10 uM treated after phenylephrine-induced vasoconstriction measured at 1 min. It counts as functional, tissue-based.
Data set [12] concerns Rattus norvegicus. Nature of the data set: Protective effect against chronic hypoxia-induced pulmonary hypertension in Sprague-Dawley rat assessed as decrease in right ventricular pressure at 50 mg/kg, ip administered every other day at 10 mins prior to induction of hypoxia and measured after 2 weeks. The class given is functional, organism-based.
Data set [13] can be described thus: Tmax in chronic hypoxia-induced pulmonary hypertension model of Sprague-Dawley rat at 50 mg/kg, ip after 30 to 600 mins by HPLC analysis. The class given is ADME, organism-based. The settings on record: in vivo.
The test system of data set [14] is Rattus norvegicus. As to the kind of experiment: Protective effect against chronic hypoxia-induced pulmonary hypertension in Sprague-Dawley rat assessed as decrease in right ventricular pressure at 10 mg/kg, ip administered every other day at 10 mins prior to induction of hypoxia and measured after 2 weeks. It counts as functional, organism-based.
For data set [15], the system named is Pulmonary artery. Nature of the data set: Protective effect against chronic hypoxia-induced pulmonary hypertension in Sprague-Dawley rat pulmonary arterial ring assessed as increase in relaxation of pulmonary artery ring at 50 uM treated after phenylephrine-induced vasoconstriction measured at 1 min. The class given is functional, tissue-based.
Data set [16] concerns Rattus norvegicus. As to the kind of experiment: Protective effect against chronic hypoxia-induced pulmonary hypertension in ip dosed Sprague-Dawley rat assessed as decrease in serum IL-6 levels administered every other day at 10 mins prior to induction of hypoxia and measured after 2 weeks by ELISA. It counts as functional, organism-based.
Data set [17] deals with Rattus norvegicus. As to the kind of experiment: Protective effect against chronic hypoxia-induced pulmonary hypertension in Sprague-Dawley rat assessed as decrease in index of right ventricular hypertrophy by measuring ratio of right ventricular/(left ventricular + septum) weight at 50 mg/kg, ip administered every other day at 10 mins prior to induction of hypoxia and measured after 2 weeks. It counts as functional, organism-based.

For data set [18], the system named is Rattus norvegicus. Nature of the data set: Protective effect against chronic hypoxia-induced pulmonary hypertension in Sprague-Dawley rat assessed as decrease in serum endothelin levels at 10 mg/kg, ip administered every other day at 10 mins prior to induction of hypoxia and measured after 2 weeks by ELISA. It counts as functional, organism-based.
The species named for data set [19] is Rattus norvegicus. As to the kind of experiment: Inhibition of hypoxia-induced proliferation of Sprague-Dawley rat PASMC at 50 uM preincubated for 10 mins followed by hypoxia induction and measured after 24 hrs by CCK8 assay. It counts as functional.
The subject of data set [20] is Rattus norvegicus. Nature of the data set: Protective effect against chronic hypoxia-induced pulmonary hypertension in Sprague-Dawley rat assessed as decrease in index of right ventricular hypertrophy by measuring ratio of right ventricular/(left ventricular + septum) weight at 10 mg/kg, ip administered every other day at 10 mins prior to induction of hypoxia and measured after 2 weeks. The class given is functional, organism-based.

In data set [21] the test system is Pulmonary artery. As to the kind of experiment: Protective effect against chronic hypoxia-induced pulmonary hypertension in Sprague-Dawley rat pulmonary arterial ring assessed as increase in relaxation of pulmonary artery ring at 10 uM treated after phenylephrine-induced vasoconstriction measured at 10 mins relative to control. Also noted: scale not given: the % may be the effect or the level left. The class given is functional.

Data set [22] has as its system Rattus norvegicus. Nature of the data set: Protective effect against chronic hypoxia-induced pulmonary hypertension in ip dosed Sprague-Dawley rat assessed as decrease in serum TNF-alpha levels administered every other day at 10 mins prior to induction of hypoxia and measured after 2 weeks by ELISA. It counts as functional, organism-based.

Activity calls are given as the source filed them. No cut-off for these calls is given here.

With `CC(C)(O)[C@@H]1CC[C@](C)([C@H]2[C@@H](O)C[C@@]3(C)[C@@H]4C[C@H](O[C@@H]5O[C@H](CO)[C@@H](O)[C@H](O)[C@H]5O)[C@H]5C(C)(C)[C@@H](O[C@@H]6OC[C@@H](O)[C@H](O)[C@H]6O)CC[C@@]56C[C@@]46CC[C@]23C)O1`, the outcome in the data set on Rattus norvegicus [1], in the data set on Rattus norvegicus [2], with Rattus norvegicus [4], in the data set with Rattus norvegicus [12], in the data set with Rattus norvegicus [14] and with Rattus norvegicus [17] was inactive. Further, the result with Rattus norvegicus [18] and with Rattus norvegicus [20] was inactive. The Cmax – broadly, the highest concentration seen after dosing – was determined as 25200 ng/mL in [3] and 7270 ng/mL in [8]. Besides, the outcome with Rattus norvegicus [5], in the data set on Rattus norvegicus [6], in the data set with Pulmonary artery [11] and in the data set on Pulmonary artery [15] was Active. For the same molecule, the Tmax in data set [7] and in [13] was 1 h in each case. In addition, the Activity was 21.194% in the data set on Pulmonary artery [9], “Dose-dependent effect” in the data set on Rattus norvegicus [16], 9.42% in the data set with Pulmonary artery [21] and “Dose-dependent effect” in the data set on Rattus norvegicus [22]. Also, the inhibition result in the data set listed under Rattus norvegicus [10] is “inactive”. Further, in the data set filed under Rattus norvegicus [19], the inhibition entry is “Active”.

The values are drawn from ChEMBL document CHEMBL4257559, “Protective effects of astragaloside IV against hypoxic pulmonary hypertension” (Medchemcomm, 2018).
